No end group written: not given here.
Tested on: K. pneumoniae ribosomes
Assay: In vitro translation assay (PURExpress, firefly luciferase) with purified ribosomes
Type: biochemical, K. pneumoniae ATCC 13883
Conditions: peptide at 5 μM, 30 min, 32 °C, luciferase luminescence, water control = 100%
Protocol: The ribosomes used in this study were purified as described previously ([Di Stasi et al., 2025]). Briefly, to purify the 70S ribosomes of ESKAPE pathogens, the bacterial strains E. faecium ATCC 19434 S. aureus ATCC 25923, K. pneumoniae ATCC 13883, A. baumannii ATCC 19606, P. aeruginosa ATCC 27853 and E. cloacae ATCC 13047 were grown in 2 L of Luria-Bertani (LB) medium, at 37 °C, until the mid-log phase was reached. After centrifugation at 7,000 rpm (12,000 × g) for 15 min at 20 °C (JLA rotor 8.1000), the bacterial pellet was resuspended in 50 mL of saline (0.9% w/v NaCl) and re-centrifuged at 15,000 rpm (27,000 × g) for 10 min at 20 °C (JA rotor 25.50). […] Finally, the solution was cleared of the last remaining impurities by centrifugation at 15,000 rpm (18,000 × g) for 15 min at 4 °C, and the ribosomes subjected to quantification by Nanodrop (A260). […]
The in vitro translation assay was performed by using the Δ ribosome from the E. coli PURExpress system New England Biolabs (NEB), as reported previously ([Di Stasi et al., 2025]; [Raulf et al., 2025]). […] Finally, 40 μL of luciferase assay substrate solution were added to the wells (Promega, E1501), and the luminescence measured using a plate reader (Tecan Infinite 200 PRO). The negative control of the test was nuclease-free water in place of the antibiotic, whose values were used to normalize the absolute luminescence values of the samples. […]

**Q.** With RRIRPRPPRLPRPRPR [Bac7(1–16)] as the sequence, how does the “Inhibition of in vitro protein synthesis” value read?
**A.** The value was 90%.

— paper PMC12748266, “Testing antimicrobial peptides inhibiting protein synthesis in living E. coli and K. pneumoniae using bio-orthogonal non-canonical amino-acid tagging” (Frontiers in Microbiology, 2025)
